Measured values: patent EP0500785B1, “A HUMAN T CELL REACTIVE FELINE PROTEIN (TRFP) ISOLATED FROM HOUSE DUST AND USES THEREFOR” (IMMULOGIC PHARMACEUTICAL CORPORATION, priority 1989, dated 2002)

How the values were obtained:
Type in all cases: cell-based, human
[1] = tested on: Peripheral blood mononuclear cells (PBMC); experiment: Cytokine profiles (IL-2, IFN-γ, IL-4 cDNA) by PCR in a primary 36 hour PBMC culture; set-up: key to STIMULATION INDEX IL-2 / STIMULATION INDEX IFN-γ / STIMULATION INDEX IL-4: fold over medium control; undetectable control set to 1.00; details: Patient 409 primary 36 hour culture; for STIMULATION INDEX IL-2 / STIMULATION INDEX IFN-γ / STIMULATION INDEX IL-4: 20 micrograms TRFP/ml or 50 micrograms peptide/ml; for STIMULATION INDEX IL-2: medium not detectable, lowest measurable response set at 1.00; for STIMULATION INDEX IFN-γ / STIMULATION INDEX IL-4: relative to medium control; for RATIO IFN/IL-4 / RATIO IL-2/IL-4: ratio of stimulation indices
Method: Peripheral blood mononuclear cells (PBMC) were purified from cat-allergic patients as described in Example 5. Five x 10^6 PBMC were cultured at 2 x 10^6/ml for 36 hours in the presence of medium only, 20 micrograms purified TRFP/ml or 50 micrograms peptide/ml. The cells were then washed two times with phosphate buffered saline (PBS, pH 7.2) and lysed with 2 ml […] guanidinium isothiocyanate, 0.5% Sarkosyl, 5 mM sodium citrate, 0.1 M 2-mercaptoethanol, pH 7.0. The lysate was then forced through a 26 gauge needle to shear genomic DNA, and was layered onto a 2 ml cushion of 5.7 M CsCl, 0.01 M EDTA, pH 7.5 in diethylpyrocarbonate (DEPC)-treated water. The lysate was centrifuged at 35,000 RPM in a Beckman SW41 rotor for 18 hours at 20°C. The RNA pellet was resuspended in 0.4 ml TE (10 mM Tris, 1 mM EDTA) pH 7.5, 0.1% SDS, and then extracted three times with 0.5 ml phenol/0.2 ml chloroform. The RNA was then precipitated on dry ice with 2.5 volumes ice-cold ethanol, 1/10 volume 3 M sodium acetate, pH 5.2 in DEPC-treated water, rinsed once with 70% ethanol in DEPC-treated water, and dried. The RNA pellet was resuspended in 2 microliters TE, pH 7.5 in DEPC-treated water.
Total cellular RNA was converted to cDNA using the Superscript kit (BRL, Bethesda, MD). Two microliters of RNA were added to one microliter oligo (dT)12-18 (500 micrograms/ml) and 9 microliters water. The sample was heated to 70°C for 10 minutes and ice quenched. Four microliters 5X buffer were added to the sample along with 2 microliters 0.1 M DTT and 1 microliter dNTP mix (10 mM each, dATP, dCTP, dGTP, dTTP). One microliter reverse transcriptase (200U) was added and the reaction was carried out for one hour at 42°C. The reaction was terminated by incubation of the sample at 90°C for five minutes and stored at -80°C.
Ten-fold serial dilutions of T cell cDNA in 10 mM TRIS, pH 7.5 were amplified using the standard kit and protocol recommended by Perkin Elmer-Cetus (Redwood City, CA). Each sample received 26.65 microliters water, 5 microliters 10X PCR buffer, 8 microliters of dNTP mix (1.25 mM each of dATP, dCTP, dGTP and dTTP), 0.1 microliter alpha ^32P-dCTP (3000 Ci/mmol), 0.25 microliter AmpliTaq, 5 microliters cDNA and 5 microliters cytokine-specific 5' and 3' primers (20 micromolar). The primers used for most cytokines and the beta-actin control were purchased from Clontech (Redwood City, CA). The human IL-4 primers were purchased from Research Genetics (Huntsville, AL) and had the following sequences: [formula]
The reactions were carried out after overlaying each sample with one drop of mineral oil, with the following program in a programmable thermal cycler (MJ Research, Cambridge, MA).
The PCR products were extracted once with 25 microliters chloroform and 25 microliters of each sample were then electrophoresed on an 8% polyacrylamide gel at 250 V. The gel was dried and exposed to pre-flashed x-ray film. Several exposures of each gel were then scanned using a Shimadzu flying spot laser densitometer. Values on the linear portion of the titrations were then compared to the medium control values to obtain a stimulation index for each sample. Primers for beta-actin were included as a control for general cDNA levels in each sample. Where the medium control values are not detectable, the lowest measurable response was set at 1.00. In other experiments, levels of cytokine cDNA can be compared directly with previously amplified cytokine-specific cDNAs as standards. Thus, absolute levels of particular cytokine cDNAs can be compared from one sample to another and from one experiment to another. In this experiment, IL-2, IL-4 and IFN-gamma levels were measured. […] This analysis will be expanded to studies of other cytokines involved in the generation of allergic responses, such as IL-5, IL-8, IL-9, TGF-beta. Samples of cDNA from each treatment can also be saved for later analysis once additional cytokines are identified and sequenced. […]

[2] = tested on: TRFP primed T cell cultures; experiment: T cell proliferation assay (tritiated thymidine incorporation) of TRFP-primed T cells restimulated with allergens or peptides; details: for T cell stimulatory activity: summarising Tables 2 and 3
Method: Peripheral blood mononuclear cells (PBMC) were purified from 60 ml of heparinized blood from cat allergic patients. PBMC were subsequently treated as described below, although in individual cases, the length of time of cultivation with IL-2 and/or IL-4 and the specific peptides used for stimulation varied.
10 ml of PBMC from patient 131 at 10^6/ml were cultured at 37°C for 7 days in the presence of 5 micrograms purified TRFP/ml RPMI-1640 supplemented with 5% pooled human AB serum. Viable cells were purified by Ficoll-Hypaque centrifugation and cultured for three weeks at 5 units recombinant human IL-2/ml and 5 units recombinant human IL-4/ml. The resting T cells were then restimulated (secondary) with 5 micrograms TRFP at 2 x 10^5/ml in the presence of irradiated (3500 Rads) autologous PBMC at a concentration of 5 x 10^5/ml for three days, purified by Ficoll-Hypaque centrifugation and grown in 5 units IL-2 and 5 units IL-4/ml for two weeks. For assay, 2 x 10^4 resting secondary T cells were restimulated (tertiary) in the presence of 5 x 10^4 irradiated (3500 Rads) autologous PBMC or 2 x 10^4 transformed B cells (20,000 Rads) with various concentrations of allergens or their fragments in a volume of 200 microliters in a 96-well round bottom assay plates for 3 days. Each well then received 1 microCurie tritiated (methyl) thymidine for 16 hours. The counts incorporated were collected onto glass fiber filters and processed for liquid scintillation counting.
Antigens used: T cell reactive feline protein (TRFP), Hollister-Stier cat epithelium skin test reagent (CST), IPC ragweed pollen extract (pollen), and synthetic peptides derived from the TRFP protein sequence (See Figures 6 and 7). Significant T cell proliferation is generally regarded as greater than 2.5 times the media control (T cells and antigen presenting cells alone).
Alternatively, PBMC were treated as follows: the primary stimulated cells were cultured in IL-2/IL-4 for two weeks. The resting T cells derived from this culture were tested in a secondary assay with some, but not all, of the above allergens. […] This type of epitope analysis has allowed the definition of T cell epitopes present in TRFP.

[3] = tested on: Patient 155 TRFP secondary primed T cells; experiment: Induction of T cell anergy/tolerance in vitro, followed by proliferation assay on antigenic challenge
Method: The T cell cultures were exposed to 5µg/ml TRFP on day 0 and 5µg/ml, 10µg/ml, 10µg/ml and 20µg/ml thereafter. The peptide treated cultures were exposed to 1µg/ml peptide on day 0 and 1µg/ml, 1µg/ml, 2µg/ml and 5µg/ml thereafter. In addition, 0.5ml of fresh media was replaced on day 2. The cells were then washed and set up for a proliferation assay with 2x10^4 T cells and 2x10^4 irradiated (2500 Rad) autologous EBV and various doses of antigen. T cell proliferation was measured as incorporation of tritiated thymidine at day 9. […]

[4] = Chain #2 TRFP peptides, cat allergic patients, average SI of responding patients multiplied by percent positive
[5] = Chain #2 TRFP peptides, cat allergic patients, average of responding patients
[6] = Chain #1 TRFP peptides, average cpm with antigen divided by cpm of T cells and antigen presenting cells alone, responding patients, SI ≥ 2.5 positive
[7] = Chain #1 TRFP peptides, cat allergic patients, average SI of all responding patients multiplied by percent of patients with a positive response

Fel 25: TRFP chain 2 peptide, amino acids 49 - 68 (YVENGLISRVLDGLVMTTIS; UniProt P30440 66-85, looked up, fragment)
STIMULATION INDEX IL-2 [1]: 2.9 | STIMULATION INDEX IFN-γ [1]: 12.7 | STIMULATION INDEX IL-4 [1]: 2.5 | RATIO IFN/IL-4 [1]: 5.1 | RATIO IL-2/IL-4 [1]: 1.2 | PI [2, 4]: 350 | SI [2, 5]: 7.6

Fel 28: TRFP chain 2 peptide, amino acids 60 - 82 (DGLVMTTISSSKDCMGEAVQNTV; UniProt P30440 77-99, looked up, fragment)
STIMULATION INDEX IFN-γ [1]: 3.8 | STIMULATION INDEX IL-4 [1]: 0.5 | RATIO IFN/IL-4 [1]: 7.6 | PI [2, 4]: 94 | SI [2, 5]: 3.6 | T cell stimulatory activity ([2]; result in words): weakest T cell epitope containing region of TRFP

Fel 29: TRFP chain 2 peptide, amino acids 74 - 92 (MGEAVQNTVEDLKLNTLGR; UniProt P30440 91-109, looked up, fragment)
STIMULATION INDEX IL-2 [1]: 1.2 | STIMULATION INDEX IFN-γ [1]: 3.0 | STIMULATION INDEX IL-4 [1]: 1.1 | RATIO IFN/IL-4 [1]: 2.7 | RATIO IL-2/IL-4 [1]: 1.1 | PI [2, 4]: 259 | SI [2, 5]: 5.5

Fel 17: TRFP chain 2 peptide, amino acids 12 - 33 (DVFFAVANGNELLLDLSLTKVN; UniProt P30440 29-50, looked up, fragment)
STIMULATION INDEX IL-2 [1]: 315.1 | STIMULATION INDEX IFN-γ [1]: 82.4 | STIMULATION INDEX IL-4 [1]: 7.5 | RATIO IFN/IL-4 [1]: 11.0 | RATIO IL-2/IL-4 [1]: 42.0 | PI [2, 4]: 421 | SI [2, 5]: 6.1

Fel 20-1: TRFP chain 2 peptide, amino acids 34 - 59 (ATEPERTAMKKIQDCYVENGLISRVL; UniProt P30440 51-76, looked up, fragment)
STIMULATION INDEX IFN-γ [1]: 12.0 | STIMULATION INDEX IL-4 [1]: 4.6 | RATIO IFN/IL-4 [1]: 2.6 | PI [2, 4]: 395 | SI [2, 5]: 5.9

Fel 14: TRFP chain 1 peptide, amino acids 18 - 43 (PDEYVEQVAQYKALPVVLENARILKN; UniProt P30438 40-65, looked up, fragment)
STIMULATION INDEX IL-2 [1]: 106.9 | STIMULATION INDEX IFN-γ [1]: 75.0 | STIMULATION INDEX IL-4 [1]: 1.9 | RATIO IFN/IL-4 [1]: 39.5 | RATIO IL-2/IL-4 [1]: 56.3 | SI [2, 6]: 13.7 | PI [2, 7]: 1054 | T cell stimulatory activity ([2]; result in words): powerful activity

Fel 8-3: TRFP chain 1 peptide, amino acids 7 - 33 (KRDVDLFLTGTPDEYVEQVAQYKALPV; UniProt P30438 29-55, looked up, fragment)
SI [2, 6]: 16.9 | PI [2, 7]: 1437 | T cell stimulatory activity ([2]; result in words): powerful activity | T cell proliferation (cpm) following Antigenic challenge: Fel 8-3 ([3]; label = tolerance treatment over 5 days, challenge with Fel 8-3): 3,850 cpm | T cell proliferation (cpm) following Antigenic challenge: Ragweed Peptide ([3]; label = tolerance treatment over 5 days, challenge with Ragweed Peptide): 5,130 cpm | T cell proliferation (cpm) following Antigenic challenge: TRFP ([3]; label = tolerance treatment over 5 days, challenge with TRFP): 12,320 cpm | T cell proliferation (cpm) following Antigenic challenge: - ([3]; label = tolerance treatment over 5 days, no challenge antigen): 1,270 cpm | T cell proliferation (cpm) following Antigenic challenge ([3]; no tolerance treatment (-), label = challenge antigen): 58,150 cpm

Fel 8: TRFP chain 1 peptide, amino acids 1 - 30 (EICPAVKRDVDLFLTGTPDEYVEQVAQYKA; UniProt P30438 23-52, looked up, fragment)
STIMULATION INDEX IL-2 [1]: 1.0 | STIMULATION INDEX IFN-γ [1]: 1.8 | STIMULATION INDEX IL-4 [1]: 0.3 | RATIO IFN/IL-4 [1]: 6.0 | RATIO IL-2/IL-4 [1]: 3.3 | SI [2, 6]: 18.1 | PI [2, 7]: 1393 | secondary T cell response of peripheral blood lymphocytes ([2]; patient 131, Figure 9, result in words): respond | T cell stimulatory activity ([2]; result in words): most dominant T-cell epitopes
